Experimental data taken from paper PMC2632303 (Journal of molecular biology, 2008).
Where no end group is shown, it is not given here.

Columns and labels:
human 20S proteasome [1] = biological target: T1, human 20S proteasome (Homo sapiens, UniProt P25788); assay: Ki determinations, non-competitive kinetics with Suc-LLVY-AMC; type: biochemical; settings: for Ki relative to PR11: comparison of Table III values
20S proteasome = settings: cited from earlier work
human 20S proteasome [2] = biological target: T1, human 20S proteasome; assay: Inhibition of chymotrypsin-like activity of 20S proteasome by PR-peptides; type: biochemical; settings: same experiment as I50; n of Eq. 1

RRRPRPPALPRW [Peptide A8W12]
Ki (human 20S proteasome [1]): 50.7 nM
Ki relative to PR11 (human 20S proteasome [1]): nearly half of PR11

RRRPRPPFLPRW [Peptide F8W12]
Ki (human 20S proteasome [1]): 184 nM
Ki relative to PR11 (human 20S proteasome [1]): about two-fold greater than that of PR11

RRRPRPPY [PR8]
Inhibition of 20S proteasome (20S proteasome): does not inhibit 20S proteasome

RRRPRPPYLPR [PR11]
Ki (human 20S proteasome [1]): 86.5 nM

RRRPRPPYLPRPRPPPFFPPRLPPRIPPGFPPRFPPRFP [PR39]
N (fractional occupation of PR-peptide on 20S proteasome, derived from curve-fitting) (human 20S proteasome [2]): 1.232

RRRPRPPYLPRW [Peptide W12]
Ki (human 20S proteasome [1]): 39.5 nM
